The values below come from patent US9856480B2, “Dnazyme for silencing the expression of EGFR” (DCB-USA LLC, priority 2013, dated 2018).

Strand notation (5' to 3'): a small letter for the sugar, then the base; units joined by * are phosphorothioate-linked, units joined directly phosphodiester-linked; [ ] holds rarer units or linkages, { } end groups; capitals alone tell only the bases. d = 2'-deoxy (DNA)

Data set [1] concerns T790M-harboring cancer cells. Description: Anti-proliferation comparison of T790M DNAzymes. The data set is classed as cell-based.
The next data set concerns H1975 cells (EGFR T790M). In words: Cell viability assay (MTT). The settings on record: 100 nM by lipofectamine transfection, 72 h. The data set is classed as cell-based, human.
The next data set has as its system CL97 cells. In words: Apoptosis assay (annexin V and PI, flow cytometry). The settings on record: 100 nM, 48 h. The data set is classed as cell-based, human. The procedure: (§1) H1975 or CL97 was seeded onto 10-cm dish and cultured overnight. Then, cells were separately treated with 100 nM DzControl or DzT790M-1 with lipofectamine 2000 (Invitrogen). After 48 h, cells were collected, double stained by annexin V and PI, and analyzed by flow cytometry following the protocol of Dead cell apoptosis kit from manufacturer (Invitrogen).

The subject of a further data set is H1975 cells. Description: Apoptosis assay (annexin V and PI, flow cytometry). In kind it is cell-based, human. The settings on record: 100 nM, 48 h. How it is done: as §1
A further data set relates to wild-type EGFR mRNA. In words: Quantitative real-time PCR of EGFR mRNA knockdown. In kind it is cell-based, human. The settings on record: 100 nM, 48 h. The procedure: (§2) A549, CL1-5, H1975, or CL97 was seeded onto 6-well at 3×10^5 cells/well and cultured overnight. Then, cells were separately treated with 100 nM DzControl or DzT790M-1 with lipofectamine 2000 (Invitrogen). After 48 h, total mRNA were extracted from DNAzyme-treated cells by Mestrisol following manufacturer's protocol. cDNA were synthesized by using RT III kit with random hexamers as primers (Invitrogen). The PCR primers were synthesized by Genomics BioSci & Tech (Taipei, Taiwan). The sequences of PCR primers are listed as follows: […]
(§3) The parameters for PCR were: 95° C. for 10 min, then 25 cycles of PCR at 95° C. for 30 s, 60° C. for 30 s, and 72° C. for 60 s. 3% agarose gels were used for electrophoresis of PCR products. The intensity of bands were quantified by Image J. Quantitative RT-PCR was performed on 40 ng total mRNA with the LightCycler 480 system (Roche). The PCR mix contained 5 μl of 2× Probe Master mix, 100 nM of UPL probe (Roche Diagnostics, Penzberg, Germany), 200 nM of forward primer and reverse primer, 0.1 ul RNAseout (Invitrogen), and 0.025 ul RTIII enzyme (Invitrogen) in a total volume of 10 μl. PCR parameters were as follows: 50° C. for 40 min, then 45 cycles of PCR at 95° C. for 10 s, 60° C. for 10 s, and 72° C. for 2 s. Data were analyzed by LC480 software (Roche Diagnostics, Penzberg, Germany). The relative amount of EGFR mRNA was normalized to ACTB mRNA. The sequences of PCR primers are as follows: […]
To examine the allele selectivity of DzT790M-1, EGFR mRNA knockdown efficiency was detected in two cell lines harboring wild-type EGFR (A549, CL1-5) and two cell lines containing EGFR T790M mutation (H1975, CL97). A549, CL1-5, H1975, or CL97 was seeded onto 6-well at 3×10^5 cells/well and cultured overnight. […]
Then, A549 and PC9 cells were separately treated with 50, 100, or 150 nM control DNAzyme or DzEGFR—ΔE746-A750 with Lipofectamine 2000 for 48 h. […] Quantitative RT-PCR was performed on 40 ng total mRNA with the LightCycler 480 system (Roche). […] Data were analyzed by LC480 software (Roche Diagnostics). […]

The test system of the next data set is T790M EGFR mRNA. In words: Quantitative real-time PCR of EGFR mRNA knockdown. The data set is classed as cell-based, human. The settings on record: for T790M EGFR mRNA expression knocked down (quantitative real-time PCR): 100 nM, 48 h. The procedure:
as §2, §3
To examine the allele selectivity of DzT790M-1, EGFR mRNA knockdown efficiency was detected in two cell lines harboring wild-type EGFR (A549, CL1-5) and two cell lines containing EGFR T790M mutation (H1975, CL97). A549, CL1-5, H1975, or CL97 was seeded onto 6-well at 3×10^5 cells/well and cultured overnight. Then, cells were separately treated with 100 nM DzControl or DzT790M-1 with lipofectamine 2000 (Invitrogen). After 48 h, total mRNA was extracted. […] DzT790M-1 knocked down 68.2% and 77.4% T790M EGFR mRNA expression in H1975 and CL97 cells respectively. In contrast, in A549 and CL1-5 cells, only 1.1% and 19.2% wild-type EGFR mRNA expression was affected.

A further data set deals with H1975 xenograft tumor. In words: In vivo tumorigenesis assay, intratumoral DNAzyme. The arrangement: species or system Balb/c Nude mice. How it is done:
(§4) 8-week-old Balb/c Nude mice were subcutaneously inoculated with 2×10^6 H1975 cells. After 7 days, mice were randomly divided into two groups consisting of ten mice in each group (DzControl or DzT790M-1). 500 pmoles of DzControl or DzT790M-1 mixed with lipofectamine 2000 were injected intratumorally at frequency of twice per week until completion of the experiments. The sizes of tumor were measured every 3-4 days. All the animal studies were performed according to the protocols approved by the Laboratory Animal Center, Academia Sinica. After the mice were sacrificed, the tumor tissues were excised and fixed by 10% formalin and embedded in paraffin. Xenograft tumor slides were stained for hematoxylin and eosin and analyzed with microscopy.
as §4, with “All the animal studies were performed according to the protocols approved by the Laboratory Animal Center, Academia Sinica.” left out, “microscopy. […] To assess the effects of DzT790M-1 on EGFR expression and downstream signaling, tumors taken from the Balb/c Nude mice were processed for western blotting.” for “microscopy.”

Where [2] appears, read: 500 pmoles intratumorally twice per week.

In the case of “DzT790M-1: 10-23 DNAzyme against EGFR T790M mRNA, arms 10/4, phosphorothioate ends: AGCTGCATGAGGCTAGCTACAACGAGAGC (DNA dA*dGdCdTdGdCdAdTdGdAdGdGdCdTdAdGdCdTdAdCdAdAdCdGdAdGdAdG*dC; further chemistry not fully specified)”, the “anti-proliferation effect on T790M-harboring cancer cells, ranking among SEQ ID NOs:1-7” value in data set [1] is listed as “most effective”. Further, in the data set on H1975 cells (EGFR T790M), the anti-proliferation effect was 50%. In the data set on CL97 cells, the “percentage of apoptotic cells in whole cell population” value came out at 27.4% and the “percentage of dead cells in whole cell population” value stood at 25.1%. For the same substance, in the data set with H1975 cells, the apoptotic cells is 18.6%; the “dead cells (annexin V and PI double positive)” value was determined as 32.6%. The “wild-type EGFR mRNA knockdown” value in the data set with wild-type EGFR mRNA (A549 cells) turned out to be 1.1%. The “wild-type EGFR mRNA knockdown” value with wild-type EGFR mRNA (CL1-5 cells) stood at 19.2%. In the data set on T790M EGFR mRNA (CL97 cells), the “T790M EGFR mRNA expression knocked down (quantitative real-time PCR)” value is given as 77.4%. Besides, the “T790M EGFR mRNA expression knocked down (quantitative real-time PCR)” value in the data set on T790M EGFR mRNA (H1975 cells) came to 68.2%. For the same substance, the “increased knockdown efficiency toward T790M EGFR mRNA over wild-type counterpart” value with T790M EGFR mRNA (quantitative real-time PCR, H1975, CL97 vs A549, CL1-5) is “at least 3.5 fold”. Besides, in the data set on H1975 xenograft tumor (setting [2]), the “total EGFR, pEGFR, pSTAT3, pAKT, pERK expression in xenograft tumor tissue (western blotting)” value is recorded as “significantly suppressed”; the “tumor tissue histology (hematoxylin and eosin)” value is reported as “Severe necrosis”. The tumor growth result in the data set on H1975 xenograft tumor (500 pmoles with lipofectamine 2000 intratumorally twice per week, vs DzControl) is “significantly suppressed”.
